Test results published in patent publication US4052436A, “Fluorene-2-acetic acids and derivatives, process and method of using” (E. R. Squibb & Sons, Inc., priority 1976, dated 1977).

Key:
[1] = anti-inflammatory activity of the optical isomers and dl mixture (test not specified); type: in vivo; conditions: α-methyl-fluorene-2-acetic acid, d and l optical isomers and dl mixture
[2] = tested on: carrageenin-induced edema in the hind paw of the rat; test: carrageenin-induced edema assay (oral, hind paw); type: in vivo; conditions: 5 h, carrageenin injected into hind paw 2 h after dose, edema weighed 3 h after injection, read-out: ID50 (calculated dose that produces 50 percent inhibition of the edema)
Method: The anti-inflammatory activities of fluorene-2-acetic acid and its derivatives may be tested by a carrageenin-induced edema assay. Carrageenin injected into the footpad of rats produces an edematous condition, due mainly to vaso-active mediators. The compound to be tested is administered orally and assessed for inhibition of the edema.
The following examples show the anti-inflammatory activity of fluorene-2-acetic acid and 7-chloro-fluorene-2-acetic acid as determined by carrageenin-induced edema assay.
The procedure for these experiments is to first orally administer the test compound to a rat. Two hours later a solution of carrageenin is injected into the plantar surface of the hind paw of the rat. Three hours after the injection (5 hours after administration of the drug) the edema in the treated paw is measured by weighing the paws. To establish the baseline, the weight of the contralateral paw is determined. A dose-response curve is established, and the activity of the drug is recorded as the calculated dose that produces 50 percent inhibition (ID50) of the edema.

SMILES	anti-inflammatory activity [1]	ED50 [2] [mg/kg]
CC(C(=O)O)c1ccc2c(c1)Cc1ccccc1-2 (single isomer, unassigned) [d, α-methyl-fluorene-2-acetic acid]	possesses anti-inflammatory activity	
CC(C(=O)O)c1ccc2c(c1)Cc1ccccc1-2 (single isomer, unassigned) [l, α-methyl-fluorene-2-acetic acid]	possesses anti-inflammatory activity	
O=C(O)Cc1ccc2c(c1)Cc1cc(Cl)ccc1-2 [7-chloro-fluorene-2-acetic acid]		~150
CC(C(=O)O)c1ccc2c(c1)Cc1ccccc1-2 (stereo not drawn) [dl mixture, α-Methyl fluorene-2-acetic acid]	possesses anti-inflammatory activity	
O=C(O)Cc1ccc2c(c1)Cc1ccccc1-2 [fluorene-2-acetic acid]		67
